Patent publication US12478081B2, “Application of aspartic acid derivative in preparing animal feed additive” (ANIPHA TECHNOLOGIES PTY LTD, priority 2018, dated 2025)
Marks after values point to notes of the source that are not given here.

Experiments:
[1] = Thermal stability of compounds at 60° C. (HPLC content of raw material and 2% premix); format: physicochemical; settings: for Detection result of the content of test sample (%) Day 5: Day 5, relative to Day 0; for Detection result of the content of test sample (%) Day 10: Day 10, relative to Day 0
Protocol: The variations of the contents of the main ingredient of the aspartic acid derivative raw material and the main ingredient of a premix containing 2% mass fraction of the aspartic acid derivative (hereinafter referred to as 2% premix) over time were investigated under the conditions of stability test at 60° C.
Experimental apparatus: drug stability incubator, Waters high-performance liquid chromatograph (HPLC), etc.
Test samples: N-carbamoyl-DL-aspartic acid (compound 1), diethyl N-carbamoyl-DL-aspartate (compound 2), Sodium N-carbamoyl-DL-aspartate (compound 3), Calcium N-carbamoyl-DL-aspartate (compound 4), Zinc N-carbamoyl-DL-aspartate (compound 5), Copper N-carbamoyl-DL-aspartate (compound 6), Iron N-carbamoyl-DL-aspartate (compound 7), N-glycyl-DL-aspartic acid (compound 8), N-(4-aminobutyryl)-DL-aspartic acid (compound 9), N-(10-aminodecanoyl)-DL-aspartic acid (compound 10), N-(14-aminomyristoyl)-DL-aspartic acid (compound 11).
Preparation of standard solution: 50 mg of the test sample raw material was ultrasonically dissolved in 50 mL of water to obtain a working reserve solution. An appropriate amount of the working reserve solution was taken and diluted with water respectively to concentrations of 125 ppm, 250 ppm, 500 ppm, and 1000 ppm for HPLC testing. It was checked whether the sample concentrations are in a linear relationship with the peak area response values in HPLC, and a standard curve was established.
Preparation of test solution: An appropriate amount of the test sample raw material and an appropriate amount of a premix containing 2% mass fraction of the test sample (hereinafter referred to as 2% premix) were separately ultrasonically dissolved in an appropriate amount of water to form a 1000 ppm solution, which is filtered through a 0.22 µm filter membrane and then analyzed by HPLC.
HPLC analysis conditions: chromatographic column: Waters C18 column (250 mm×4.6 mm, 5 μm); mobile phase: 0.05% phosphoric acid:methanol=95:5 (v:v) (raw material); 0.05% phosphoric acid: methanol (gradient elution); methanol: 5%→40% (0-15 min) curve 6, 40%→5% (15-16 min) curve 1, 5% (16-23 min) curve 1, (premix, feed); detection wavelength: 210 nm; column temperature: 25° C.; sample size: 20 μL; flow rate: 1 mL/min.
Test method: The test sample raw material and its 2% premix were placed in a culture plate, spread into a thin layer of <5 mm, and placed at 60° C. Samples were taken on the day 5 and ? day 10 for HPLC detection. Each sample was sampled three times in parallel.

weaned piglets = assay: Breeding test: production performance of weaned piglets; format: in vivo, Duroc×Landrace×Yorkshire cross-bred weaned piglets; settings: for increase of the average daily gain of the test pigs: compared with the control group, not significant; for ADFI (g/d*each pig) / ADG (g/d*each pig) / FCR: weaned piglets, 45 ppm in basal daily ration, 40 days
Source text: From 95 litters of 28±2 days old Duroc×Landrace×Yorkshire cross-bred weaned piglets, 360 clinically healthy piglets with similar body weights were selected as test pigs, which were randomly divided into 12 groups, with 3 replications per group and 10 pigs (half of male and female) per replication. The piglets were attracted to the food trough at the age of 7 days, and the hog house for 28-day-old weaned pigs has a cement floor, steel fence, good ventilation, and suitable temperature. The pigpens and utensils were sterilized before the test.
During the test period, the test pigs were free-stall housed in the same pigpen under the same feeding and management conditions, and were free to drink water and eat feed. The hog house was cleaned once a day, and the floor is washed once every three days to maintain clean and hygienic conditions. The test pigs were fed three times a day. The test groups include control and test groups. Group I is the control group, in which only the basal daily ration was fed to the piglets. […] 1000 ppm of a the aspartic acid derivative metal ion salt was added into the basal daily ration for the piglets in the groups VIII-XII, as shown in Table 2. No other antioxidant ingredients or growth promoters were added for the test groups during the entire feeding process. The test period was 40 days.
The test pigs were weighed during 7:00 to 9:00 in the morning of Day 0 and Day 40 after the start of the test. During the test period, the feed intake and health status of the piglets were observed every day, the remaining daily ration was weighed, the feed consumption was recorded, and the average daily feed intake (ADFI, g/d*each pig), the average daily gain (ADG, g/d*each pig), and the feed conversion ratio (FCR) were calculated. Calculation formulas are as follows: […]
The test data was statistically analyzed using SPSS18 software. First, a one-way analysis of variance (ANOVA) was performed on the data. If the difference between treatments is significant, Duncan's method was used for multiple comparisons, and the significance level was 0.05.

Compound | Detection result of the content of test sample (%) Day 5 ([1]; 2% premix) [%] | Detection result of the content of test sample (%) Day 10 ([1]; 2% premix) [%] | Detection result of the content of test sample (%) Day 5 ([1]; Raw material) [%] | Detection result of the content of test sample (%) Day 10 ([1]; Raw material) [%] | increase of the average daily gain of the test pigs (weaned piglets) [%] | ADFI (g/d*each pig) (weaned piglets) | ADG (g/d*each pig) (weaned piglets) | FCR (weaned piglets)
NCC(=O)NC(CC(=O)O)C(=O)O (racemic) [Compound 8, N-glycyl-DL-aspartic acid] | 98.57 | 97.32 | 99.78 | 98.02 | 5.2 | 305 ± 12^a g/d*each pig | 142 ± 1^ab g/d*each pig | 2.15 ± 0.07
NCCCC(=O)NC(CC(=O)O)C(=O)O (racemic) [Compound 9, N-(4-aminobutyryl)-DL-aspartic acid] | 99.41 | 97.68 | 98.46 | 98.09 | 8.1 | 311 ± 18^a g/d*each pig | 146 ± 4^abc g/d*each pig | 2.13 ± 0.06
NCCCCCCCCCC(=O)NC(CC(=O)O)C(=O)O (racemic) [Compound 10, N-(10-aminodecanoyl)-DL-aspartic acid] | 98.55 | 97.81 | 99.00 | 96.73 |  | 321 ± 7^a g/d*each pig | 150 ± 1^bc g/d*each pig | 2.14 ± 0.06
CCOC(=O)CC(NC(N)=O)C(=O)OCC (racemic) [Compound 2, diethyl N-carbamoyl-DL-aspartate] | 98.81 | 98.09 | 97.32 | 96.97 |  | 374 ± 11^b g/d*each pig | 176 ± 2^d g/d*each pig | 2.13 ± 0.05
NCCCCCCCCCCCCCC(=O)NC(CC(=O)O)C(=O)O (racemic) [Compound 11, N-(14-aminomyristoyl)-DL-aspartic acid] | 98.22 | 97.80 | 97.61 | 95.93 |  | 322 ± 16^a g/d*each pig | 150 ± 4^bc g/d*each pig | 2.14 ± 0.05
NC(=O)NC(CC(=O)O)C(=O)O (racemic) [Compound 1, N-carbamoyl-DL-aspartic acid] | 99.66 | 99.70 | 99.79 | 99.28 | 7.0 | 315 ± 14^a g/d*each pig | 145 ± 10^abc g/d*each pig | 2.18 ± 0.05
